Earlier results in article PMC6173509, “C-3- and C-4-Substituted Bicyclic Coumarin Sulfamates as Potent Steroid Sulfatase Inhibitors” (ACS Omega, 2018).

Key:
[1] = rodent; cited from earlier work
steroid sulfatase (STS) [2] = biological target: T1, steroid sulfatase (STS) (Homo sapiens, UniProt P08842); parameters: endogenous in cells; host or cells: MCF-7 breast cancer cells; details: cited from earlier work
T1 sequence (P08842 22-583): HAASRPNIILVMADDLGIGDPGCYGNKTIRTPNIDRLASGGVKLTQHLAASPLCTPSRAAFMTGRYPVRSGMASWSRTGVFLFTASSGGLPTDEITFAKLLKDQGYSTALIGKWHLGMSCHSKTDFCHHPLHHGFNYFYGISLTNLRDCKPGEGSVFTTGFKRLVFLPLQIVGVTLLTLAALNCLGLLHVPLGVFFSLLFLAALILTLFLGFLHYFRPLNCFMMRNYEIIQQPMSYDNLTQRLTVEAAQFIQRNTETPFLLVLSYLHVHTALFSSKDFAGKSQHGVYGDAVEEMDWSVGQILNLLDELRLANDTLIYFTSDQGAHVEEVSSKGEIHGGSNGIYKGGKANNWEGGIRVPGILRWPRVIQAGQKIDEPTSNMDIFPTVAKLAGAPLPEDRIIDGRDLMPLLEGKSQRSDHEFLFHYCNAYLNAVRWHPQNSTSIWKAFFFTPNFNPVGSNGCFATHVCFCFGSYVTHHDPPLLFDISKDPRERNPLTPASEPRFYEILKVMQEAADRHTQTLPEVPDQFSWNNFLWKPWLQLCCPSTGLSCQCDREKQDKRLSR

steroid sulfatase (STS) [3] = biological target: T1, steroid sulfatase (STS); parameters: a placental microsomal preparation from a sulfatase-positive human placenta from a normal term pregnancy; from tissue; host or cells: human placenta (microsomal preparation); details: cited from earlier work
[4] = parameters: method as in PMID 18288656, PMID 18288656, PMID 24604234; details: rats; ref 12a, 12b, 14; cited from earlier work

Row | SMILES | estrogenic activity [1] | % Inhibition of STS Activity in Intact MCF-7 Breast Cancer Cells at 0.01 μM (steroid sulfatase (STS) [2]; 0.01 μM inhibitor) [%] | % Inhibition of STS Activity in Intact MCF-7 Breast Cancer Cells at 0.1 μM (steroid sulfatase (STS) [2]; 0.1 μM inhibitor) [%] | % Inhibition of STS Activity in Placental Microsomes at 0.1 μM (steroid sulfatase (STS) [3]; 0.1 μM inhibitor) [%] | % Inhibition of STS Activity in Placental Microsomes at 1 μM (steroid sulfatase (STS) [3]; 1 μM inhibitor) [%] | estrogenicity [4]
1 | Cc1cc(=O)oc2cc(OS(N)(=O)=O)ccc12 [compound 3, 4-methylcoumarin-7-O-sulfamate] | no rodent estrogenic activity | <10 | 43 | <10 | 63 | 
2 | C[C@]12CC[C@@H]3c4ccc(OS(N)(=O)=O)cc4CC[C@H]3[C@@H]1CCC2=O [compound 1, estrone-3-O-sulfamate] |  |  |  |  |  | highly estrogenic
